Laboratory results reported in publication PMC5849685, “Molecular basis of an agarose metabolic pathway acquired by a human intestinal symbiont” (Nature Communications, 2018).
Each block holds one compound with its values, some of them ahead of it.

Legend:
Format in all cases: biochemical
GH2C = target: T1, GH2C (Bacteroides uniformis, UniProt A0A2D0TCC9); assay: TLC product analysis; settings: 2 uM enzyme, 2.5 mM A3, 20 mM Tris pH 8.0, 0.5 M NaCl, 37 C, 2 h
T1 construct: nucleotides 76-2547 of the gene (signal peptide removed; about residues 26-848), N-terminal His6 tag with thrombin site, pET28a, E. coli BL21 Star (DE3)
T1 sequence (A0A2D0TCC9 4-826): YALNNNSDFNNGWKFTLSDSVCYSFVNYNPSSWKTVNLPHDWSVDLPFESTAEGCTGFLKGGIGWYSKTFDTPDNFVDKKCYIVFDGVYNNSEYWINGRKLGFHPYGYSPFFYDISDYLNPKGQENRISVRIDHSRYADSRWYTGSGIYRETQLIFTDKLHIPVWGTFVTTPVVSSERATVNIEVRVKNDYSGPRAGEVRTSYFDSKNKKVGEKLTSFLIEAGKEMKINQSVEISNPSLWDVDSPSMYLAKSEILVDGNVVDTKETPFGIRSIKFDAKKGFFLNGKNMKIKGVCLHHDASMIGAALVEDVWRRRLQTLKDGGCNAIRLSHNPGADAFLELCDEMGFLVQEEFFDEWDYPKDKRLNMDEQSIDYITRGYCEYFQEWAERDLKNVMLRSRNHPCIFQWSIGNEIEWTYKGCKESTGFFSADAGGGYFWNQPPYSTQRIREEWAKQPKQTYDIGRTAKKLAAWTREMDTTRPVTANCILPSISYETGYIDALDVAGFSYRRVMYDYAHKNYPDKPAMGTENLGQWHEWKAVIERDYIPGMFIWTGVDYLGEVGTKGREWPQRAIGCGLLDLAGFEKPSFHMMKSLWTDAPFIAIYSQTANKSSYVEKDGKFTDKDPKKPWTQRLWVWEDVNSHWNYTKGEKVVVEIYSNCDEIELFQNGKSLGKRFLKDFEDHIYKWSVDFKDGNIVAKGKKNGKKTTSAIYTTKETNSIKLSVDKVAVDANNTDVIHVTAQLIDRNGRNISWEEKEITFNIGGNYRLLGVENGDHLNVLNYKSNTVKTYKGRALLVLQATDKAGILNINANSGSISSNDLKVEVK

GH117B = target: T2, GH117B (Bacteroides uniformis, UniProt A0A2D0TCD6); assay: TLC product analysis; settings: 0.5 uM enzyme, 0.5 mg/ml N2, 20 mM Tris pH 8.0, 0.5 M NaCl, 37 C, 24 h
T2 construct: nucleotides 76-1209 of the gene (signal peptide removed; about residues 26-402), N-terminal His6 tag with thrombin site, pET28a, E. coli BL21 Star (DE3); homodimer
T2 sequence (A0A2D0TCD6 4-380): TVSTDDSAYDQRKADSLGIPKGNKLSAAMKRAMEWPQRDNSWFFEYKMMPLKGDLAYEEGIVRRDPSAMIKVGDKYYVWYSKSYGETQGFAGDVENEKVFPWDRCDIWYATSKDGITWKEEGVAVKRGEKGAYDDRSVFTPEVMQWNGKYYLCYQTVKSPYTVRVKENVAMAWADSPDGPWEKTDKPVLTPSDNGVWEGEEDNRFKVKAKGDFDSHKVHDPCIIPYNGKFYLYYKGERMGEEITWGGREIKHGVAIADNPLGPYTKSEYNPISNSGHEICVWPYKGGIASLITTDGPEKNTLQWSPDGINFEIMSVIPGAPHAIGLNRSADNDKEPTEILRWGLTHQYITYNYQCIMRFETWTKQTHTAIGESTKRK

GH86 = target: T3, GH86 (Bacteroides uniformis, UniProt A0A2D0TCD3); assay: FACE product analysis; settings: 20 mM Tris pH 8.0, 0.5 M NaCl, 37 C, overnight
T3 construct: nucleotides 61-1941 of the gene (signal peptide removed; about residues 21-646), N-terminal His6 tag with thrombin site, pET28a, E. coli BL21 Star (DE3)
T3 sequence (A0A2D0TCD3 4-629): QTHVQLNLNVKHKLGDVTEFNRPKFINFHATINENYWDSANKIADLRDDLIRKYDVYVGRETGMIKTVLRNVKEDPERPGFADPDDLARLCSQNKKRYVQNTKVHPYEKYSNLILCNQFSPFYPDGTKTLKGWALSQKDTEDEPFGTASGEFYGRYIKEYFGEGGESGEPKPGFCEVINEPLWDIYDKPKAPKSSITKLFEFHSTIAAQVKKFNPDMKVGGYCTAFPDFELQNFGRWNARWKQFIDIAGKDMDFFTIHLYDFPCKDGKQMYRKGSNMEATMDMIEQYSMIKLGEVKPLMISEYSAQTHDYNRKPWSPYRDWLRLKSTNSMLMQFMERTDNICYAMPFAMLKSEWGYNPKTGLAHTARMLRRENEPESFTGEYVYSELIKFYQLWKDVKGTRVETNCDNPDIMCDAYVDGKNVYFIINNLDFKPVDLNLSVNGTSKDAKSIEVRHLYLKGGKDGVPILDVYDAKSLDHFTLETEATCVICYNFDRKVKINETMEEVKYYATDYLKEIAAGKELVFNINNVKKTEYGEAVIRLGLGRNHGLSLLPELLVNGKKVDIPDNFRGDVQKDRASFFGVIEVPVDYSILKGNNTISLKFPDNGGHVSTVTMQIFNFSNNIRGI

GH16B = target: T4, GH16B (Bacteroides uniformis, UniProt A0A2D0TCD1); assay: FACE product analysis; settings: 20 mM Tris pH 8.0, 0.5 M NaCl, 37 C, overnight
T4 construct: nucleotides 67-1029 of the gene (signal peptide removed; about residues 23-342), N-terminal His6 tag with thrombin site, pET28a, E. coli BL21 Star (DE3)
T4 sequence (A0A2D0TCD1 4-323): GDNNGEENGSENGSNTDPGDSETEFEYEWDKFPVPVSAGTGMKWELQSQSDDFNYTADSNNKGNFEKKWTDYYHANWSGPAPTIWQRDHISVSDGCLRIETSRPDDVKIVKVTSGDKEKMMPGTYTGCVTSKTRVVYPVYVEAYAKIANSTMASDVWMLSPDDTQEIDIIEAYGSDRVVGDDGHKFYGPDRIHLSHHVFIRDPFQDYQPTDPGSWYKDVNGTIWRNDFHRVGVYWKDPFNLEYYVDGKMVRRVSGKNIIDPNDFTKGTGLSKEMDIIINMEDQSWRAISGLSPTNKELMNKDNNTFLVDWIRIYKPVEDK

- TLC product analysis (GH2C): GH2C was able to hydrolyze A3
SMILES: OC[C@H]1O[C@@H](O[C@H]2[C@H]3OC[C@@H]2O[C@@H](O[C@H]2[C@@H](O)[C@@H](CO)OC(O)[C@@H]2O)[C@H]3O)[C@H](O)[C@@H](O)[C@H]1O (stereo partly drawn) [A3, agarotriose]

- TLC product analysis (GH117B): GAL and AHG released from N2 by GH117B
SMILES: OC[C@H]1OC(O)[C@H](O)[C@@H](O[C@@H]2O[C@H]3CO[C@@H]([C@@H]2O)[C@@H]3O)[C@H]1O (stereo partly drawn) [N2, neoagarobiose]

SMILES: OC[C@H]1O[C@@H](O[C@H]2[C@H]3OC[C@@H]2O[C@@H](O[C@H]2[C@@H](O)[C@@H](CO)O[C@@H](O[C@H]4[C@H]5OC[C@@H]4O[C@@H](O[C@H]4[C@@H](O)[C@@H](CO)OC(O)[C@@H]4O)[C@H]5O)[C@@H]2O)[C@H]3O)[C@H](O)[C@@H](O[C@@H]2O[C@H]3CO[C@@H]([C@@H]2O)[C@@H]3O)[C@H]1O (stereo partly drawn) [N6, neoagarohexaose]
- FACE product analysis (GH86): GH86 was able to digest neoagarooctaose (N8) and neoagarohexaose (N6) to N2
- FACE product analysis (GH16B; weak activity): GH16B predominantly generated N4 from N8, N2 and N4 from N6

SMILES: OC[C@H]1O[C@@H](O[C@H]2[C@H]3OC[C@@H]2O[C@@H](O[C@H]2[C@@H](O)[C@@H](CO)O[C@@H](O[C@H]4[C@H]5OC[C@@H]4O[C@@H](O[C@H]4[C@@H](O)[C@@H](CO)O[C@@H](O[C@H]6[C@H]7OC[C@@H]6O[C@@H](O[C@H]6[C@@H](O)[C@@H](CO)OC(O)[C@@H]6O)[C@H]7O)[C@@H]4O)[C@H]5O)[C@@H]2O)[C@H]3O)[C@H](O)[C@@H](O[C@@H]2O[C@H]3CO[C@@H]([C@@H]2O)[C@@H]3O)[C@H]1O (stereo partly drawn) [N8, neoagarooctaose]
- FACE product analysis (GH86): GH86 was able to digest neoagarooctaose (N8) and neoagarohexaose (N6) to N2
- FACE product analysis (GH16B): GH16B predominantly generated N4 from N8, N2 and N4 from N6
